Entries after “also recorded” stand apart in the source; their conditions may differ.
Assays:
[1] = tested on: Hh pathway; assay: Su(fu)-/- fibroblasts assay for Hh pathway activation; format: cell-based; settings: for % Inhibition Su(fu)-/- MEFs: Gli-dependent firefly luciferase, 15 μM HPI-1, 20 μM HPI-2, 30 μM HPI-3, 30 μM HPI-4; for Toxicity noted in Su(fu)-/- MEFs: printed instead of % inhibition
Protocol: Su(fu)^−/− fibroblasts assay for Hh pathway activation. […] After 24 h, the cells were transfected with Fugene HD (Roche), 8xGliBS-FL (95 ng/well), phRLSV40 (5 ng/well; Promega), and pEGFP-C1 (300 ng/well as a carrier; Clontech) according to the manufacturer's protocols. […] The resulting firefly and Renilla luciferase activities were measured using a dual luciferase kit and Veritas microplate luminometer.

[2] = molecular target: T1, Gli1 (Mus musculus, UniProt P47806); assay: Hh pathway activation mediated by overexpression of Gli1; format: cell-based; settings: for Inhibition of Hh pathway activity induced by Gli1 overexpression: NIH-3T3 cells, Gli-dependent firefly luciferase; for IC50: NIH-3T3 cells overexpressing Gli1, read-out: IC50 (uM) Gli1 Transfected or Infection
T1 construct: expressed in transfected cells; host or cells: NIH-3T3
T1 sequence (P47806 1-1111): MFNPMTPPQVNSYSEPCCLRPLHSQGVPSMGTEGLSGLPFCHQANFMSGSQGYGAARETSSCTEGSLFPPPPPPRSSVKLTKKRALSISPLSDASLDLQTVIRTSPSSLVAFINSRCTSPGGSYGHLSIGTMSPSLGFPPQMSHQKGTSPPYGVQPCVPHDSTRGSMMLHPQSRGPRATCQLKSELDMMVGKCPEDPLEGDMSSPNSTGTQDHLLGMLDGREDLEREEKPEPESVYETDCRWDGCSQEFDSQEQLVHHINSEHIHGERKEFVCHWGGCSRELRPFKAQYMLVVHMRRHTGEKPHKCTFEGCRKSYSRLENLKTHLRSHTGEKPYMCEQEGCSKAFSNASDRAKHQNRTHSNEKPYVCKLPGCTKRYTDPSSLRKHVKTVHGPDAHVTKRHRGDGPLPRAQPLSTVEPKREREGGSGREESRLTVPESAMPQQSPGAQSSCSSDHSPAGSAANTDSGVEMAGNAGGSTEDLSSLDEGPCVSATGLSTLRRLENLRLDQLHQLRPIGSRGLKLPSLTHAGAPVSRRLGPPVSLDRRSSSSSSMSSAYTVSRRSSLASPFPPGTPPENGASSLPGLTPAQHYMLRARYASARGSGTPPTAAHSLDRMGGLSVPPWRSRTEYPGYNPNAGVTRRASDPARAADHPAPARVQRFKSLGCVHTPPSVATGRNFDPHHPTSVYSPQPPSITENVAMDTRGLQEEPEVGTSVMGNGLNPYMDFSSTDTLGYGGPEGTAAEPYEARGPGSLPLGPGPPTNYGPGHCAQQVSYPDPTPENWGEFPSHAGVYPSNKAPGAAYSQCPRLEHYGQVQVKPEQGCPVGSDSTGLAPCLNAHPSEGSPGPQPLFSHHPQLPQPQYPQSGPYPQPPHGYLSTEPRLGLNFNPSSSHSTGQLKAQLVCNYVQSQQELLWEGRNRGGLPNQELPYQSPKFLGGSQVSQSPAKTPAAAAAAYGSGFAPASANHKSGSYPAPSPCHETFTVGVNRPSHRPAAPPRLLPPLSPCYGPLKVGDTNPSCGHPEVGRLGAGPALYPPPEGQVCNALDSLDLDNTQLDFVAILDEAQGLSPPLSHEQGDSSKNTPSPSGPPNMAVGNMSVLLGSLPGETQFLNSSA
Protocol: Hh pathway activation mediated by the overexpression of Gli, Gli2, Gli2αPKA, or Gli2αGSK. […] The cells were co-transfected the following day with 220 ng/well pcDNA-derived Gli1, Gli2, or Gli2 phosphosite mutant expression vectors and 80 ng/well of a 1:15 mixture of phRLTK (Promega) and 8XGIiBS-FL. After transfection, cells were grown to confluence (approximately 48 h). The cell were then incubated for an additional 28-32 h in DMEM containing 0.5% CS, 100 U/mL penicillin, 0.1 mg/mL streptomycin, and either DMSO, 50 μM forskolin, 50 μM LY294002, or various concentrations of the HPIs. Firefly and Renilla luciferase activities were measured using a dual luciferase kit and a Veritas microplate luminometer.

[3] = tested on: FLAG-Gli2; assay: Immunostaining of FLAG-Gli2 line: ciliary FLAG-Gli2 and primary cilia; format: cell-based, mouse; settings: for Ciliary levels of FLAG-Gli2: Shh-EGFP FLAG-Gli2 cells, immunofluorescence
Protocol: Immunostaining of FLAG-Gli lines and NIH-3T3 cells. The FLAG-Gli1-expressing or FLAG-Gli2-expressing clonal cell lines were seeded into 24-well plates (80,000 cells/well) containing poly-D-lysine-coated 12-mm glass coverslips. […] The cells were subsequently fixed in 4% paraformaldehyde for 10 min at room temperature followed by treatment with methanol at −20° C. for 2 to 5 min. The cells were washed with PBS, permeabilized with 0.2% Triton X-100 for 2 to 5 min, and then blocked with PBS containing 2% BSA for 3 h at room temperature. The coverslips were then treated with mouse anti-FLAG M2 antibody (Sigma; 1:1,000 dilution in blocking buffer) and rabbit anti-Arl13b (10) (1:1,000 dilution in blocking buffer) for 3 h at room temperature and washed 3×5 min with PBS. The coverslips were incubated next with Alexa Fluor 594-conjugated goat anti-mouse IgG and Alexa Fluor 488-conjugated donkey anti-rabbit IgG antibodies (Invitrogen; 1:1,000 dilutions in blocking buffer) for 2 h at room temperature. After washes with PBS and a 5-min incubation with 4,6-diamidino-2-phenylindole (DAPI), the samples were mounted using Prolong Gold (Invitrogen) and imaged with an upright Leica DM4500B compound microscope. In order to quantify ciliary Gli2 localization, a circular region with diameter equal to the average width of cilia as determined by the anti-Arl13b antibody staining was manually placed at the distal end of each cilium. Regions were transferred from the anti-Arl13b antibody image to the anti-FLAG antibody image, and FLAG staining intensities within those areas were assessed. Between 40 and 80 cilia were analyzed for each condition. To normalize ciliary FLAG-Gli2 levels with respect to compound-dependent changes in total FLAG-Gli2 levels, the absolute average intensities for each condition were divided by the fold change in FLAG-Gli2 levels, as determined by the quantitative immunoblotting described above. Quantification of ciliary FLAG-Gli1 levels was performed in an analogous manner. Since HPI-4 perturbs primary cilia formation, only Arl13b-positive structures that could be clearly identified as cilia were used for Gli protein quanitification in HPI-4-treated cells. To assess cytoplasmic microtubule structures in cells treated with the HPIs, NIH-3T3 cells were cultured on poly-D-lysine-coated 12-mm glass coverslip, treated with the HPIs, and fixed with 4% paraformalehyde as described above. In place of the methanol treatment, the cells were permeabilitized with PBS containing 0.1% Triton X-100 for 1 min. Washing, blocking, and antibody incubation steps were then conducted as before, using mouse anti-<-tubulin (DM1-A, Sigma, 1:2,000 in blocking buffer). Secondary antibody treatments, DAPI staining, mounting, and imaging were then conducted as described above.

Row | SMILES | % Inhibition Su(fu)-/- MEFs ([1]; 1440 min) [%] | IC50 [2] [µM] | further results
1 | COCCOC(=O)C1=C(C)NC2=C(C(=O)CC(c3ccccc3OC)C2)C1c1cccc(O)c1 (mixture of isomers) [Compound 8, 4-(3-Hydroxy-phenyl)-7-(2-methoxy-phenyl)-2-methyl-5-oxo-1,4,5,6,7,8-hexahydro-quinoline-3-carboxylic acid 2-methoxy-ethyl ester] |  |  | Repression of constitutive Hh pathway activity in Su(fu)-/- fibroblasts [1]: reduce Hh pathway activity in these cells to near-basal levels; % Inhibition Su(fu)-/- MEFs [1]: 80.2%; Inhibition of Hh pathway activity induced by Gli1 overexpression ([2]; listed as HPI-1): inhibit Gli-induced firefly luciferase expression in a dose-dependent manner; also recorded: inhibits
2 | N#Cc1cc2c(nc1SCC(=O)Nc1nc3ccccc3s1)CCC2 [Compound 1] | 95.2 | 1 | 
3 | CCCCNC(=N)C(C)c1ccc(CC(C)C)cc1 (stereo not shown) [Compound 2] | 6.26 | > 30 | 
4 | Cc1cc(/C=c2\sc3nc4ccccc4n3c2=O)c(C)n1C(C)C [Compound 3] | 92.8 | 1 | 
5 | O=C(Nc1cccc2ccccc12)OC[C@@H]1CCCN2CCCC[C@H]12 [Compound 4] | −7.55 | > 30 | 
6 | CCC(C)NS(=O)(=O)c1ccc(Cc2ccc(S(=O)(=O)NC(C)CC)cc2)cc1 (stereo not shown) [Compound 5] | 45.7 | 7 | 
7 | CCOC(=O)c1cc2c(=O)n3ccccc3nc2n(C(C)C)c1=NC(=O)c1cc(OC)cc(OC)c1 [Compound 6] | 90 | 1.5 | 
8 | CCN1CCCC1CNC(=O)C1CCN(c2nc3c(C)cc(C)cc3s2)CC1 (stereo not shown) [Compound 7] | 32.1 | > 10 | Toxicity noted in Gli1 Transfected or Infection column [2]: (Toxic at 30)
9 | CCOC(=O)c1cn(-c2ccccc2)nc1-c1ccc(OC)c(OC)c1 [Compound 9] | −26.9 | > 30 | 
10 | O=S(=O)(Nc1cc(Cl)c(Cl)cc1Cl)c1ccc(F)cc1 [Compound 10] | 81.8 | 2 | 
11 | OCCNc1nc(N2CCN(c3ccccc3)CC2)nc2ccccc12 [Compound 11] | 70.7 | > 30 | Inhibition of Hh pathway activity induced by Gli1 overexpression ([2]; listed as HPI-3): no significant activity; also recorded: inactive; Ciliary levels of FLAG-Gli2 [3]: increased ciliary levels of FLAG-Gli2
12 | CC(C)(C)N(CCNS(=O)(=O)c1ccc(-c2cc(C(F)(F)F)no2)s1)Cc1ccco1 [Compound 12] |  | 4 | Toxicity noted in Su(fu)-/- MEFs [1]: Toxic at 20
13 | CN1CCN(C2Cc3ccccc3Sc3ccccc32)CC1 (stereo not shown) [Compound 13] |  | > 30 | Toxicity noted in Su(fu)-/- MEFs [1]: Toxic at 15
14 | CCOc1ccc2ncc(C(=O)c3ccc(C)cc3)c(N3CCCC3)c2c1 [Compound 14] | 84.3 | > 30 | 
15 | O=C(Nc1nnc(S(=O)(=O)N2CCCCC2)s1)c1cccc(Br)c1 [Compound 15] | 89.1 | 12 | 
16 | CCOc1ccc(CCNc2cnnc3c(Cl)cccc23)cc1OCC [Compound 16] | 62.1 | > 30 | 
17 | COc1ccc(OC)c2c1cc1n2CC(C)(C(=O)NC2CCCCCCC2)N(CCN(C)C)C1=O (stereo not shown) [Compound 17] | 89.1 | > 30 | Repression of constitutive Hh pathway activity in Su(fu)-/- fibroblasts [1]: reduce Hh pathway activity in these cells to near-basal levels; Inhibition of Hh pathway activity induced by Gli1 overexpression [2]: entirely due to a moderate increase in Renilla luciferase activity; Ciliary levels of FLAG-Gli2 [3]: increased ciliary levels of FLAG-Gli2
18 | N#CC(C(=O)c1ccc(Cl)cc1Cl)=C1NC(=O)c2ccccc2N1 [Compound 18] | 58.5 | > 10 | Inhibition of Hh pathway activity induced by Gli1 overexpression ([2]; listed as HPI-4): no significant activity; also recorded: inactive; Primary cilia formation ([3]; 30 μM HPI-4): truncated primary cilia; also recorded: inhibits primary cilia formation; Ciliary levels of FLAG-Gli2 [3]: increased ciliary levels of FLAG-Gli2
